{"source": "the supplement of paper PMC11061612", "key": {"[1]": {"compound": "NC1(c2ccc(-c3nc4ccn5c(=O)[nH]nc5c4cc3-c3ccccc3)cc2)CCC1 [MK-2206]", "settings": "max 10 µM", "how_it_was_run": "(§1)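 Cancer cell lines were seeded in 1536-well plates in 7.5 μl DMEM/F12 or RPMI with 10% FBS, held 24 hours at 37°C and 5% CO2, then dosed for 72 hours (final DMSO typically 0.2%). Viability was read by CellTiter-Glo 2.0 luminescence and scaled between blank-well and DMSO-well means. The single-agent IC50 comes from dose responses fitted to a two-parameter logistic curve with a non-linear mixed effects model.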"}, "[2]": {"compound": "CS(=O)(=O)CCNCc1ccc(-c2ccc3ncnc(Nc4ccc(OCc5cccc(F)c5)c(Cl)c4)c3c2)o1 [Lapatinib]", "settings": "max 10 µM", "how_it_was_run": "as §1"}, "[3]": {"compound": "Cc1c2c(nn1C)CSCc1cc(n(C)n1)CSc1cc(c3ccccc3c1)OCCCc1c(C(=O)O)n(C)c3c-2c(Cl)ccc13 [AZD5991]", "settings": "max 1 µM", "how_it_was_run": "as §1"}, "[4]": {"compound": "COc1cc([C@@H]2c3cc4c(cc3[C@@H](O[C@@H]3O[C@@H]5CO[C@@H](C)O[C@H]5[C@H](O)[C@H]3O)[C@H]3COC(=O)[C@H]23)OCO4)cc(OC)c1O [Etoposide]", "settings": "max 10 µM", "how_it_was_run": "as §1"}, "[5]": {"compound": "C[C@@H](c1ccc2nccn2c1)n1nnc2ncc(-c3cnn(C)c3)nc21 [Savolitinib]", "settings": "max 1 µM", "how_it_was_run": "as §1"}, "[6]": {"compound": "CC(C)n1c(=O)n(C)c2cnc3cc(F)c(-c4ccc(OCCCN5CCCCC5)nc4)cc3c21 [AZD1390]", "settings": "max 0.3 µM", "how_it_was_run": "as §1"}, "[7]": {"compound": "C=CCn1c(=O)c2cnc(Nc3ccc(N4CCN(C)CC4)cc3)nc2n1-c1cccc(C(C)(C)O)n1 [AZD1775]", "settings": "max 3 µM", "how_it_was_run": "as §1"}, "[8]": {"compound": "Cc1cc2ncnn2cc1Nc1ncc2c(n1)n(C1CCOCC1)c(=O)n2C [AZD7648]", "settings": "max 10 µM", "how_it_was_run": "as §1"}, "[9]": {"compound": "CN(C)CCCOc1ccc(-c2ccc3ncc4c(c3c2)n(C2CCOCC2)c(=O)n4C)cn1 [AZD0156]", "settings": "max 3 µM", "how_it_was_run": "as §1"}, "[10]": {"compound": "Cc1nc(-c2cn3c(n2)-c2ccc(-c4cnn(C(C)(C)C(N)=O)c4)cc2OCC3)n(C(C)C)n1 [Taselisib]", "settings": "max 10 µM", "how_it_was_run": "as §1"}, "[11]": {"compound": "CC1(C)CCC(CN2CCN(c3ccc(C(=O)NS(=O)(=O)c4ccc(NCC5CCOCC5)c([N+](=O)[O-])c4)c(Oc4cnc5[nH]ccc5c4)c3)CC2)=C(c2ccc(Cl)cc2)C1 [Venetoclax]", "settings": "max 1 µM", "how_it_was_run": "as §1"}, "[12]": {"compound": "O=C(Nc1ccc2[nH]nc(-c3ccncc3)c2c1)[C@@H]1CCN(CC(=O)N2CCN(c3ccc(-c4ncccn4)cc3)CC2)C1", "settings": "max 5 µM", "how_it_was_run": "as §1"}, "[13]": {"compound": "Cn1cnc2c(F)c(Nc3ccc(Br)cc3Cl)c(C(=O)NOCCO)cc21 [Selumetinib]", "settings": "max 10 µM", "how_it_was_run": "as §1"}, "[14]": {"compound": "CCN(CCO)CCCOc1ccc2c(Nc3cc(CC(=O)Nc4cccc(F)c4)[nH]n3)ncnc2c1 [AZD2811]", "settings": "max 1 µM", "how_it_was_run": "as §1"}, "[15]": {"compound": "COc1cc2ncnc(Nc3ccc(F)c(Cl)c3)c2cc1OCCCN1CCOCC1 [Gefitinib]", "settings": "max 10 µM", "how_it_was_run": "as §1"}, "[16]": {"compound": "CN(CC[C@H](CSC1=CC=CC=C1)NC2=C(C=C(C=C2)S(=O)(=O)NC(=O)C3=CC=C(C=C3)N4CCC(CC4)[C@H](C5=CC=CC=C5C6=CC=C(C=C6)Cl)O)S(=O)(=O)C(F)(F)F)CCO [AZD4320]", "settings": "max 1 µM", "how_it_was_run": "as §1"}, "[17]": {"compound": "CCc1c2c(nc3ccc(O)cc13)-c1cc3c(c(=O)n1C2)COC(=O)[C@]3(O)CC [SN-38]", "settings": "max 0.3 µM", "how_it_was_run": "as §1"}, "[18]": {"compound": "CC(=O)O[C@H]1C(=O)[C@@]2(C)[C@H]([C@H](OC(=O)c3ccccc3)[C@]3(O)C[C@H](OC(=O)[C@H](O)[C@@H](NC(=O)c4ccccc4)c4ccccc4)C(C)=C1C3(C)C)[C@]1(OC(C)=O)CO[C@@H]1C[C@@H]2O [Paclitaxel]", "settings": "max 3 µM", "how_it_was_run": "as §1"}, "[19]": {"compound": "COc1nnc2ccc(N3CCC(c4ccc(OCCN5CCN(C)C(=O)[C@H]5C)cc4)CC3)nn12 [AZD5153]", "settings": "max 1 µM", "how_it_was_run": "as §1"}, "[20]": {"compound": "O=C(c1cc(Cc2n[nH]c(=O)c3ccccc23)ccc1F)N1CCN(C(=O)C2CC2)CC1 [Olaparib]", "settings": "max 10 µM", "how_it_was_run": "as §1"}, "[21]": {"compound": "Nc1ccn([C@@H]2O[C@H](CO)[C@@H](O)C2(F)F)c(=O)n1 [Gemcitabine]", "settings": "max 0.3 µM", "how_it_was_run": "as §1"}, "[22]": {"compound": "C[C@@H](Nc1cc(F)cc(F)c1)c1cc(C(=O)N(C)C)cc2c(=O)cc(N3CCOCC3)oc12 [AZD8186]", "settings": "max 10 µM", "how_it_was_run": "as §1"}, "[23]": {"compound": "CC(=O)c1c(C)c2cnc(Nc3ccc(N4CCNCC4)cn3)nc2n(C2CCCC2)c1=O [Palbociclib]", "settings": "max 10 µM", "how_it_was_run": "as §1"}, "[24]": {"compound": "O=c1[nH]cc(F)c(=O)[nH]1 [5-Fluorouracil]", "settings": "max 20 µM", "how_it_was_run": "as §1"}, "[25]": {"compound": "C[C@@H](Oc1cc(-c2cnn(C3CCNCC3)c2)cnc1N)c1c(Cl)ccc(F)c1Cl [Crizotinib]", "settings": "max 10 µM", "how_it_was_run": "as §1"}, "[26]": {"compound": "C[C@@H]1COCCN1C2=NC(=NC(=C2)C3(CC3)[S@](=N)(=O)C)C4=C5C=CNC5=NC=C4 [AZD6738]", "settings": "max 10 µM", "how_it_was_run": "as §1"}, "[27]": {"compound": "C1CC(C1)(C(=O)[O-])C(=O)[O-].N.N.[Pt+2] [Carboplatin]", "settings": "max 10 µM", "how_it_was_run": "as §1"}, "[28]": {"compound": "C1CN(CCC1(C(=O)N[C@@H](CCO)C2=CC=C(C=C2)Cl)N)C3=NC=NC4=C3C=CN4 [AZD5363]", "settings": "max 10 µM", "how_it_was_run": "as §1"}, "[29]": {"compound": "CC(=O)Nc1cccc(-n2c(=O)n(C3CC3)c(=O)c3c(Nc4ccc(I)cc4F)n(C)c(=O)c(C)c32)c1 [Trametinib]", "settings": "max 1 µM", "how_it_was_run": "as §1"}, "[30]": {"compound": "COc1cccc(OCCCN)c1-c1cc(Nc2cnc(C#N)cn2)n[nH]1 [Prexasertib]", "settings": "max 1 µM", "how_it_was_run": "as §1"}, "[31]": {"compound": "CC1=CN2[C@@H](C1)C=NC3=CC(=C(C=C3C2=O)OC)OCCCCCOC4=C(C=C5C(=C4)N=C[C@@H]6CC(=CN6C5=O)C)OC [SG3199]", "settings": "max 0.001 µM", "how_it_was_run": "as §1"}, "[32]": {"compound": "COc1cc(Nc2ncc3c(n2)-c2ccc(Cl)cc2C(c2c(F)cccc2OC)=NC3)ccc1C(=O)O [Alisertib]", "settings": "max 10 µM", "how_it_was_run": "as §1"}, "[33]": {"compound": "CC1=C(C(=CC=C1)Cl)NC(=O)C2=CN=C(S2)NC3=CC(=NC(=N3)C)N4CCN(CC4)CCO [Dasatinib]", "settings": "max 2 µM", "how_it_was_run": "as §1"}, "[34]": {"compound": "COc1cccc2c1C(=O)c1c(O)c3c(c(O)c1C2=O)C[C@@](O)(C(=O)CO)C[C@@H]3O[C@H]1C[C@H](N)[C@H](O)[C@H](C)O1 [Doxorubicin]", "settings": "max 1 µM", "how_it_was_run": "as §1"}, "[35]": {"compound": "N#Cc1cnc(Nc2cc(NC[C@H]3CNCCO3)c(C(F)(F)F)cn2)cn1 [SRA737]", "settings": "max 10 µM", "how_it_was_run": "as §1"}}}
{"cell line": "SW837 (Colorectal Carcinoma)", "values": [{"measurement": "IC50, cell viability 72 h", "setting": "[1]", "result": "> 10", "unit": "µM"}, {"measurement": "IC50, cell viability 72 h", "setting": "[2]", "result": "> 10", "unit": "µM"}, {"measurement": "IC50, cell viability 72 h", "setting": "[3]", "result": "> 1000", "unit": "nM"}, {"measurement": "IC50, cell viability 72 h", "setting": "[4]", "result": "> 10", "unit": "µM"}, {"measurement": "IC50, cell viability 72 h", "setting": "[5]", "result": "> 1000", "unit": "nM"}, {"measurement": "IC50, cell viability 72 h", "setting": "[6]", "result": "> 300", "unit": "nM"}, {"measurement": "IC50, cell viability 72 h", "setting": "[7]", "result": 2240, "unit": "nM"}, {"measurement": "IC50, cell viability 72 h", "setting": "[8]", "result": "> 10", "unit": "µM"}, {"measurement": "IC50, cell viability 72 h", "setting": "[9]", "result": "> 3000", "unit": "nM"}, {"measurement": "IC50, cell viability 72 h", "setting": "[10]", "result": "> 10", "unit": "µM"}, {"measurement": "IC50, cell viability 72 h", "setting": "[11]", "result": "> 1000", "unit": "nM"}, {"measurement": "IC50, cell viability 72 h", "setting": "[12]", "result": "> 5", "unit": "µM"}, {"measurement": "IC50, cell viability 72 h", "setting": "[13]", "result": 9.89, "unit": "µM"}, {"measurement": "IC50, cell viability 72 h", "setting": "[14]", "result": "> 1000", "unit": "nM"}, {"measurement": "IC50, cell viability 72 h", "setting": "[15]", "result": "> 10", "unit": "µM"}, {"measurement": "IC50, cell viability 72 h", "setting": "[16]", "result": "> 1000", "unit": "nM"}, {"measurement": "IC50, cell viability 72 h", "setting": "[17]", "result": "> 300", "unit": "nM"}, {"measurement": "IC50, cell viability 72 h", "setting": "[18]", "result": 582, "unit": "nM"}, {"measurement": "IC50, cell viability 72 h", "setting": "[19]", "result": 717, "unit": "nM"}, {"measurement": "IC50, cell viability 72 h", "setting": "[20]", "result": "> 10", "unit": "µM"}, {"measurement": "IC50, cell viability 72 h", "setting": "[21]", "result": "> 300", "unit": "nM"}, {"measurement": "IC50, cell viability 72 h", "setting": "[22]", "result": "> 10", "unit": "µM"}, {"measurement": "IC50, cell viability 72 h", "setting": "[23]", "result": "> 10", "unit": "µM"}, {"measurement": "IC50, cell viability 72 h", "setting": "[24]", "result": "> 20", "unit": "µM"}, {"measurement": "IC50, cell viability 72 h", "setting": "[25]", "result": "> 10", "unit": "µM"}, {"measurement": "IC50, cell viability 72 h", "setting": "[26]", "result": "> 10", "unit": "µM"}, {"measurement": "IC50, cell viability 72 h", "setting": "[27]", "result": "> 10", "unit": "µM"}, {"measurement": "IC50, cell viability 72 h", "setting": "[28]", "result": "> 10", "unit": "µM"}, {"measurement": "IC50, cell viability 72 h", "setting": "[29]", "result": 300, "unit": "nM"}, {"measurement": "IC50, cell viability 72 h", "setting": "[30]", "result": 186, "unit": "nM"}, {"measurement": "IC50, cell viability 72 h", "setting": "[31]", "result": "> 1", "unit": "nM"}, {"measurement": "IC50, cell viability 72 h", "setting": "[32]", "result": "> 10", "unit": "µM"}, {"measurement": "IC50, cell viability 72 h", "setting": "[33]", "result": "> 2000", "unit": "nM"}, {"measurement": "IC50, cell viability 72 h", "setting": "[34]", "result": "> 1000", "unit": "nM"}, {"measurement": "IC50, cell viability 72 h", "setting": "[35]", "result": "> 10", "unit": "µM"}]}
